Test [1] has as its system epidermal stem cells. The test can be described thus: Culturing of fresh human skin with agents, fluorescent immunostaining for Ki-67 and MCSP. The test is classed as cell-based. Particulars: fresh human abdominal skin, final concentration 0.01%. The method, then: Fresh skin samples taken from the abdominal regions of participants (aged 20 to 30) with informed consent were purchased from KAC Co., Ltd. The samples were cultured in medium comprising an equal mixture of 10% FBS-DMEM (Thermo Fisher Scientific K.K., 11885084) and Humedia-KG2 (KURABO Industries Ltd., KK-2150S) with addition of 1-(2-hydroxyethyl)-2-imidazolidinone (“S173”, final concentration: 0.01%), which has an effect of inhibiting both MMP-9 and heparanase, […]”, final concentration: 0.01%), or a combination of 1-(2-hydroxyethyl)-2-imidazolidinone and […]”, final concentration: 0.01%). As a control, culturing was carried out in medium containing an equal amount of DMSO solvent lacking these agents. Medium was exchanged daily, and skin tissue slices were collected on the 2nd day (Day2). Following the AMeX method, fresh human skin was dehydrated and fixed using cold acetone and exchanged with acetone, methyl benzoate and xylene in that order, and then embedded in paraffin. Slices with thicknesses of 3 μm were prepared for tissue staining. Paraffin slices cut to 3 μm thicknesses were deparaffinized with xylene and hydrated using EtOH. Antibodies for Ki-67 (SP6) (Thermo Fisher Scientific K.K., RM-9106-S, rabbit […] monoclonal antibody) and antibodies for MCSP (melanoma-associated chondroitin sulphate proteoglycan) (Millipore, MAB2029, 9.2.27, mouse monoclonal antibody) were used for fluorescent immunostaining.

Test [2] has as its system epidermal stem cells. Particulars: disclosed in NPL 1 (Iriyama et al., Scientific Reports 2020); cited from earlier work.
The mark [3] stands for this setting: Day2, compared to control without addition of agent (Day2 control).

On to `O=C1NCCN1CCO` [S173, 1-(2-hydroxyethyl)-2-imidazolidinone], for which, in the test on epidermal stem cells [1] (setting [3]), the “number of Ki67-positive cells (cell proliferation marker)” value was “increased” and the “number of MCSP-positive cells (epidermal basal stem cell marker)” value is reported as “increased”. The “number of Ki67+MCSP-positive cells” value with epidermal stem cells [1] (Day2, compared to the control) is “increased”. The “number of stem cells (MCSP-positive) relative to Day0” value in the test with epidermal stem cells [1] (after culturing for 2 days, compared to Day0 level) was “maintained at the level of Day0”. In addition, in the test with epidermal stem cells [2], the “effect on epidermal stem cell counts” value is “maintaining epidermal stem cell counts”.
